Laboratory results taken from US10874108B2, “Anti-microbial compositions” (5D HEALTH PROTECTION GROUP LTD, priority 2016, dated 2020).

Assays:
[1] = Cumulative elution from carbopol hydrogel; assay type: physicochemical
Procedure: Hydrogels were loaded with EDTA compounds and investigated for elution of the silver, zinc and EDTA. Carbopol ETD 2020 was obtained from Lubrizol Advanced Materials, Inc. USA. 1.2 g carbopol power was dissolved in 42.36 g deionized water for 1 hour to fully hydrate. Then 8.4 ml of the EDTA complexes and 4.8 g glycerine were added into carbopol solution with vigorous stirring; finally, 3 g 50% triethanolamine was dropped into the suspension to obtain final products: carbopol hydrogel with EDTA complexes.
The silver, zinc and EDTA increased in saline day by day, which indicated the release of silver, zinc and EDTA can be controlled from the hydrogel.

[2] = Elution from loaded gauze; assay type: physicochemical
Procedure: The gauzes were weighed before soaking, after soaking and after drying for 24 hours. To assess the elution profile of the EDTA complexes from gauze, the loaded gauzes were immersed in water and saline (Table 6 and Table 7). […] After day 2, the eluting of silver, zinc and EDTA decreased more than 5 times compared to day 1.

SMILES: O=C([O-])CN(CCN(CC(=O)[O-])CC(=O)[O-])CC(=O)[O-].[Ag+].[Ag+].[Zn+2] [EDTA compound 4, sample 1]
- Elution in saline (ppm) EDTA ([1]; day 1): 26.39 ± 2.06 ppm
- Elution in saline (ppm) Silver ([1]; day 1): 32.09 ± 3.02 ppm
- Elution in saline (ppm) Zinc ([1]; day 1): 22.12 ± 3.31 ppm
- Elution in water (ppm) EDTA ([1]; day 1): 31.12 ± 5.40 ppm
- Elution in water (ppm) Silver ([1]; day 1): 44.39 ± 5.98 ppm
- Elution in water (ppm) Zinc ([1]; day 1): 31.88 ± 3.53 ppm
- Elution in saline (ppm) EDTA ([1]; day 2): 27.18 ± 2.34 ppm
- Elution in saline (ppm) Silver ([1]; day 2): 37.09 ± 2.91 ppm
- Elution in saline (ppm) Zinc ([1]; day 2): 30.90 ± 5.81 ppm
- Elution in water (ppm) EDTA ([1]; day 2): 26.21 ± 4.20 ppm
- Elution in water (ppm) Silver ([1]; day 2): 47.13 ± 5.03 ppm
- Elution in water (ppm) Zinc ([1]; day 2): 36.09 ± 3.61 ppm
- Elution in saline (ppm) EDTA ([1]; day 3): 35.02 ± 0.72 ppm
- Elution in saline (ppm) Silver ([1]; day 3): 47.05 ± 2.79 ppm
- Elution in saline (ppm) Zinc ([1]; day 3): 36.73 ± 3.64 ppm
- Elution in water (ppm) EDTA ([1]; day 3): 37.28 ± 2.58 ppm
- Elution in water (ppm) Silver ([1]; day 3): 45.58 ± 4.54 ppm
- Elution in water (ppm) Zinc ([1]; day 3): 34.28 ± 4.55 ppm
- Elution in saline (ppm) EDTA ([1]; day 4): 37.71 ± 1.92 ppm
- Elution in saline (ppm) Silver ([1]; day 4): 51.24 ± 1.53 ppm
- Elution in saline (ppm) Zinc ([1]; day 4): 40.31 ± 1.84 ppm
- Elution in water (ppm) EDTA ([1]; day 4): 37.53 ± 3.27 ppm
- Elution in water (ppm) Silver ([1]; day 4): 46.88 ± 6.86 ppm
- Elution in water (ppm) Zinc ([1]; day 4): 33.78 ± 2.20 ppm
- Elution in saline (ppm) EDTA ([1]; day 5): 40.57 ± 1.41 ppm
- Elution in saline (ppm) Silver ([1]; day 5): 59.55 ± 1.21 ppm
- Elution in saline (ppm) Zinc ([1]; day 5): 43.22 ± 3.91 ppm
- Elution in water (ppm) EDTA ([1]; day 5): 35.11 ± 5.39 ppm
- Elution in water (ppm) Silver ([1]; day 5): 45.91 ± 7.04 ppm
- Elution in water (ppm) Zinc ([1]; day 5): 35.99 ± 1.16 ppm
- Elution in saline (ppm) EDTA ([2]; day 1): 24.65 ± 2.40 ppm
- Elution in saline (ppm) Silver ([2]; day 1): 49.91 ± 2.29 ppm
- Elution in saline (ppm) Zinc ([2]; day 1): 29.69 ± 2.40 ppm
- Elution in water (ppm) EDTA ([2]; day 1): 18.09 ± 3.19 ppm
- Elution in water (ppm) Silver ([2]; day 1): 35.89 ± 5.66 ppm
- Elution in water (ppm) Zinc ([2]; day 1): 21.99 ± 2.85 ppm
- Elution in saline (ppm) EDTA ([2]; day 2): 9.19 ± 3.42 ppm
- Elution in saline (ppm) Silver ([2]; day 2): 12.76 ± 4.44 ppm
- Elution in saline (ppm) Zinc ([2]; day 2): 9.14 ± 2.77 ppm
- Elution in water (ppm) EDTA ([2]; day 2): 12.54 ± 3.11 ppm
- Elution in water (ppm) Silver ([2]; day 2): 25.27 ± 5.63 ppm
- Elution in water (ppm) Zinc ([2]; day 2): 15.66 ± 2.73 ppm
- Elution in saline (ppm) EDTA ([2]; day 3): 1.83 ± 0.26 ppm
- Elution in saline (ppm) Silver ([2]; day 3): 3.43 ± 0.54 ppm
- Elution in saline (ppm) Zinc ([2]; day 3): 3.71 ± 0.27 ppm
- Elution in water (ppm) EDTA ([2]; day 3): 1.90 ± 0.79 ppm
- Elution in water (ppm) Silver ([2]; day 3): 4.93 ± 2.56 ppm
- Elution in water (ppm) Zinc ([2]; day 3): 4.42 ± 1.62 ppm
- Elution in saline (ppm) EDTA ([2]; day 4): 1.28 ± 0.84 ppm
- Elution in saline (ppm) Silver ([2]; day 4): 2.29 ± 1.73 ppm
- Elution in saline (ppm) Zinc ([2]; day 4): 3.42 ± 0.93 ppm
- Elution in water (ppm) EDTA ([2]; day 4): 1.27 ± 0.84 ppm
- Elution in water (ppm) Silver ([2]; day 4): 1.75 ± 0.76 ppm
- Elution in water (ppm) Zinc ([2]; day 4): 3.26 ± 0.35 ppm
- Elution in saline (ppm) EDTA ([2]; day 5): 0.45 ± 0.15 ppm
- Elution in saline (ppm) Silver ([2]; day 5): 2.52 ± 2.26 ppm
- Elution in saline (ppm) Zinc ([2]; day 5): 2.68 ± 2.00 ppm
- Elution in water (ppm) EDTA ([2]; day 5): 0.87 ± 0.36 ppm
- Elution in water (ppm) Silver ([2]; day 5): 0.85 ± 0.34 ppm
- Elution in water (ppm) Zinc ([2]; day 5): 2.06 ± 1.21 ppm
